Literature values, collected in paper PMC8661056, “Synthesis and Evaluation of [^11C]7-Halogen-2-Phenyl Isoindolone Derivatives: Potential PET Radioligands for in vivo Imaging of 5-HT2C Receptors” (Frontiers in Neuroscience, 2021).

Assays:
[1] = biological target: 5HT2CR; design: method as in Finnema et al., 2014; conditions: ref Finnema et al., 2014; cited from earlier work
[2] = biological target: 5HT2AR; design: method as in Finnema et al., 2014; conditions: ref Finnema et al., 2014; cited from earlier work
[3] = tested on: 5-HT2CR; design: method as in Kim et al., 2017; conditions: rat brain; ref Kim et al., 2017; cited from earlier work

COc1cc(CCNCc2ccccc2O[11CH3])c(OC)cc1Br [[^11C]Cimbi-36]
Ki [1]: 1.7 nM | Ki [2]: 0.5 nM

C[C@H](Cc1cccc([18F])c1)Oc1nc(N2CCNC[C@H]2C)ncc1F [[^18F]4, [^18F]4-(3-Fluorophenethoxy)pyrimidine]
ratios of uptake in regions of interest to cerebellum [3]: low to moderate
